Source: the NIST ThermoML archive (doi:10.1021/je060271a)

Details: 283.14 K, Liquid, Vibrating tube method

CCCCCCC(=O)OCC(COC(=O)CCCCCC)(COC(=O)CCCCCC)COC(=O)CCCCCC [pentaerythritol tetraheptanoate]
Details | mass density [kg/m3]
8943.7 kPa | 991
8967.5 kPa | 991
8987.8 kPa | 991
9012.5 kPa | 991
9033.2 kPa | 991
9051.6 kPa | 991
9069.4 kPa | 991.1
9088.3 kPa | 991.2
9103.3 kPa | 991.1
9118.5 kPa | 991
9136.4 kPa | 991.1
9152.5 kPa | 991.2
9168 kPa | 991
9183.2 kPa | 991.1
9198.7 kPa | 991.1
9217 kPa | 991.1
9232.5 kPa | 991.1
9248.5 kPa | 991.2
9267.1 kPa | 991.1
9282.6 kPa | 991.2
9298.5 kPa | 991.2
9317.3 kPa | 991.3
9333.1 kPa | 991.2
9348.8 kPa | 991.2
9368.1 kPa | 991.1
9382 kPa | 991.2
9401.3 kPa | 991.2
9417.4 kPa | 991.2
9436.7 kPa | 991.3
9452.9 kPa | 991.4
9468.9 kPa | 991.2
9485.1 kPa | 991.2
9504.9 kPa | 991.3
9521.4 kPa | 991.3
9538.2 kPa | 991.1
9557.6 kPa | 991.3
9574.2 kPa | 991.5
9594.2 kPa | 991.3
9610.7 kPa | 991.3
9644.3 kPa | 991.4
9664.8 kPa | 991.3
9681.7 kPa | 991.4
9698.7 kPa | 991.4
9719.2 kPa | 991.4
9736.6 kPa | 991.4
9771.3 kPa | 991.5
9792.1 kPa | 991.4
9809.7 kPa | 991.5
9845.5 kPa | 991.4
9866.9 kPa | 991.4
9884.8 kPa | 991.4
9902.5 kPa | 991.6
9923.9 kPa | 991.5
9942.1 kPa | 991.6
9960.2 kPa | 991.5
9978.3 kPa | 991.6
9999.8 kPa | 991.7
10018 kPa | 991.6
10037 kPa | 991.5
10059 kPa | 991.6
10078 kPa | 991.6
10096 kPa | 991.5
10114 kPa | 991.8
10137 kPa | 991.6
10156 kPa | 991.6
10174 kPa | 991.6
10197 kPa | 991.7
10216 kPa | 991.6
10239 kPa | 991.8
10258 kPa | 991.7
10277 kPa | 991.6
10296 kPa | 991.7
10319 kPa | 991.7
10339 kPa | 991.8
10359 kPa | 991.8
10382 kPa | 991.8
10401 kPa | 991.8
10425 kPa | 991.8
10445 kPa | 991.9
10465 kPa | 991.8
10485 kPa | 991.9
10509 kPa | 991.7
10529 kPa | 991.9
10549 kPa | 991.9
10574 kPa | 991.8
10595 kPa | 992
10615 kPa | 991.9
10640 kPa | 991.9
10661 kPa | 991.9
10682 kPa | 991.9
10706 kPa | 991.9
10727 kPa | 992
10748 kPa | 991.9
10770 kPa | 992
10795 kPa | 992
10816 kPa | 991.9
10842 kPa | 991.9
10863 kPa | 992
10886 kPa | 992.1
10909 kPa | 992
10931 kPa | 992
10957 kPa | 992.1
10979 kPa | 992
11005 kPa | 992.2
11028 kPa | 992.2
11050 kPa | 992.2
11072 kPa | 992
11100 kPa | 992.1
11122 kPa | 992.2
11145 kPa | 992.2
11173 kPa | 992.1
11197 kPa | 992.2
11221 kPa | 992.2
11244 kPa | 992.2
11266 kPa | 992.3
11294 kPa | 992.2
11318 kPa | 992.3
11342 kPa | 992.2
11370 kPa | 992.4
11394 kPa | 992.3
11422 kPa | 992.3
11446 kPa | 992.3
11470 kPa | 992.3
11499 kPa | 992.4
11524 kPa | 992.4
11548 kPa | 992.4
11573 kPa | 992.4
11602 kPa | 992.4
11627 kPa | 992.5
11657 kPa | 992.5
11682 kPa | 992.4
11707 kPa | 992.5
11732 kPa | 992.5
11762 kPa | 992.5
11788 kPa | 992.6
11813 kPa | 992.5
11844 kPa | 992.7
11870 kPa | 992.6
11901 kPa | 992.5
11928 kPa | 992.7
11954 kPa | 992.7
11981 kPa | 992.5
12013 kPa | 992.6
12040 kPa | 992.6
12067 kPa | 992.6
12099 kPa | 992.8
12127 kPa | 992.7
12161 kPa | 992.8
12190 kPa | 992.6
12219 kPa | 992.7
12243 kPa | 992.7
12264 kPa | 992.8
12288 kPa | 992.8
12308 kPa | 992.8
12333 kPa | 992.8
12353 kPa | 992.7
12373 kPa | 992.9
12398 kPa | 992.9
12418 kPa | 992.9
12439 kPa | 993
12464 kPa | 992.9
12485 kPa | 993
12506 kPa | 992.8
12527 kPa | 992.9
12553 kPa | 992.9
12574 kPa | 993
12596 kPa | 993
12622 kPa | 992.9
12643 kPa | 993.1
12665 kPa | 993
12687 kPa | 993
12713 kPa | 993
12734 kPa | 993
12760 kPa | 993.1
12782 kPa | 993.1
12805 kPa | 993.1
12827 kPa | 993
12854 kPa | 993.1
12876 kPa | 993.3
12899 kPa | 993.1
12926 kPa | 993.1
12948 kPa | 993.1
12971 kPa | 993.2
12999 kPa | 993.2
13021 kPa | 993.2
13045 kPa | 993.2
13072 kPa | 993.3
13096 kPa | 993.2
13123 kPa | 993.2
13146 kPa | 993.3
13176 kPa | 993.3
13201 kPa | 993.2
13225 kPa | 993.3
13243 kPa | 993.4
13262 kPa | 993.3
13278 kPa | 993.3
13294 kPa | 993.4
13313 kPa | 993.3
13329 kPa | 993.4
13348 kPa | 993.4
13365 kPa | 993.4
13383 kPa | 993.3
13399 kPa | 993.4
13418 kPa | 993.5
13435 kPa | 993.4
13451 kPa | 993.5
13471 kPa | 993.6
13488 kPa | 993.4
13504 kPa | 993.6
13524 kPa | 993.4
13541 kPa | 993.5
13558 kPa | 993.5
13578 kPa | 993.5
13595 kPa | 993.5
13612 kPa | 993.5
13632 kPa | 993.5
13648 kPa | 993.5
13666 kPa | 993.5
13687 kPa | 993.7
13704 kPa | 993.7
13721 kPa | 993.6
13738 kPa | 993.6
13759 kPa | 993.6
13776 kPa | 993.6
